The record followed here is paper PMC8698672, “Selective Anticancer and Antimicrobial Metallodrugs Based on Gold(III) Dithiocarbamate Complexes” (Biomedicines, 2021).

Test [1] deals with Cryptococcus neoformans (Cn). Put plainly: Antifungal MIC assay (CO-ADD). The class given is cell-based. Particulars: 36 h, 35 °C, inhibition ≥ 70%. Here is the method:
The antimicrobial assays were performed according to the protocols of the Community for Open Antimicrobial Drug Discovery (CO-ADD). […] All the sample preparation was done using liquid-handling robots.
The antifungal activity of all synthesized complexes was evaluated in two different fungi, Candida albicans (Ca) and Cryptococcus neoformans (Cn). Fungi strains were cultured for 3 days on yeast extract–peptone–dextrose (YPD) agar at 30 °C. A yeast suspension of 1 × 10^6 to 5 × 10^6 CFU/mL (as determined by OD530) was prepared from five colonies. The suspension was subsequently diluted and added to each well of the complex-containing plates, giving a final cell density of fungus suspension of 2.5 × 10^3 CFU/mL and a total volume of 50 μL. All plates were covered and incubated at 35 °C for 36 h without shaking. […] The absorbance was measured using a Biotek Multiflo Synergy HTX plate reader (Winooski, VT, USA). In both cases, the percentage of growth inhibition was calculated for each well, using the negative control (media only) and positive control (fungi without inhibitors) on the same plate. […] Due to a higher variance in growth and inhibition, a lower threshold was applied to the data for C. neoformans.

For a further test, the target named is T1, BSA (Bos taurus, UniProt P02769).
T1 construct: purchased Sigma Aldrich
Put plainly: BSA interaction, fluorescence quenching (Stern–Volmer). Format: binding, bovine. Particulars: for bimolecular quenching constant kq: BSA 50 μM in PBS pH 7.4; for Stern–Volmer quenching constant KSV: BSA 50 μM in PBS pH 7.4, excitation 295 nm; for number of binding sites n: modified Stern–Volmer equation; for number of binding sites n, rounded (in brackets): whole number printed in brackets after n. Here is the method:
BSA was commercially available from Sigma Aldrich. A 2 mM solution of BSA was prepared in PBS (10 mM, pH = 7.4). The final concentration of the stock BSA solution was checked by UV–Vis spectra (ε279 nm = 43,824 M^−1 cm^−1). The value obtained was the real concentration of the stock solution. A 6 mM stock solution of the gold complexes in DMSO was prepared and different aliquots of the gold complex were added to a 50 μM solution of BSA in PBS and placed in a quartz cuvette of 1 cm optical path. The fluorescence spectra were recorded on a Horiba Jobin Yvon (Bensheim, Germany) fluorolog FL-3-11 spectrometer. The samples were excited at 295 nm and the emission spectra were recorded in a range from 310 to 450 nm with emission slits set to 2 nm. The fluorescence was measured for 4 min after every addition of the gold complex aliquots. The fluorescence intensities of the PBS and the gold complexes were irrelevant under the described conditions.
The data were analyzed using the Stern−Volmer equation F0/F = 1 + KSV (gold complex) = 1 + Kqτ0 (gold complex) (τ0 = lifetime of BSA in absence of the quencher) to obtain the Stern−Volmer quenching constant (KSV) and the quenching rate constant (Kq). The binding constant (Kb) was quantified using the modified Stern−Volmer equation: log {(F0 − F)/F} = log Kb + n log (gold complex) (n = number of binding sites).
This intrinsic fluorescence is extremely sensitive to the environment, so any binding or interaction of molecules induces changes in the BSA emission spectrum. Consequently, interaction with BSA studies are based on monitoring the BSA luminescence in the range of 300–450 nm by adding increasing concentrations of Au(III) complexes (Figure 3a and Figure S6). The obtained fluorescence data were analyzed using the Stern–Volmer equation, which allows the Stern-Volmer quenching constant KSV and the bimolecular quenching constant kq to be calculated (Figure 3b). In most of the cases studied, the Stern–Volmer representation fit a straight line, indicative of a single quenching mode, either static or dynamic. In case of drug development, static quenching is usually required to probe an interaction between the drug and the protein. By studying the bimolecular quenching constant (kq), the operated quenching can be determined since this parameter represents the efficiency of quenching or how accessible the fluorophores are to the quencher. Dynamic quenching depends on diffusion processes, so a higher kq value than the diffusion-controlled rate constant of the biomolecule in water, 10^10 M^−1s^−1, may indicate a contribution of static quenching. […] Additionally, the modified Stern–Volmer equation permits the values of the binding constant (Kb) for each gold complex and the number of binding sites (n) to be calculated. According to the Kb values observed in Table 3, there was a moderated interaction force between complex-BSA. These values were higher than other reported for gold(I) complexes, but similar to the documented interactions for potential drugs based on ruthenium or nickel.

In another test the test system is Caco-2 cells. Put plainly: Cell cycle analysis, PI staining flow cytometry. Format: cell-based, human. Particulars: 20 μM, 24 h. As to the method: After incubation with the complexes, the cells were collected, washed twice with PBS, fixed in 70% ice-cold ethanol, and stored at 4 °C for 24 h. After centrifugation, cells were resuspended in PBS containing PI (50 μg/mL) and RNase A (100 μg/mL). After incubation for 30 min at RT in the dark, PI-stained cells were analyzed for DNA content in a Gallios Flow Cytometer (Beckman Coulter). […] Cell cycle distribution was determined on a linear scale. The percentage of cells in cycle phases was determined using the Kaluza Analysis Software (Beckman Coulter).
To stop the uncontrolled replication of tumor cells is still one of the main aims in the chemotherapy field; thus, arresting the tumor cell cycle in as many stages as possible is considered crucial. […] As is known, the geometry and structure of the complex have a great impact on the action mechanism of the drug, so there are examples of gold(III) complexes that alter the cell cycle at the G0/G1 phase, but also others at G2/M phase.
Figure 5 Cell population (%) in each stage of the cell cycle obtained by flow cytometry after 24 h of incubation of the cells with DMSO (control) and gold(III) complexes 1, 5, and 6 (20 μM).
A general note: In flow cytometry, cells or beads pass a laser one at a time.

For the next test, the system named is Caco-2/TC7 cells. Kind of test: Oxidative stress damage, protein carbonyl levels (DNPH). Format: cell-based, human. Conditions: 20 μM, 24 h. As to the method:
Cell homogenates needed for this assay were prepared according to a previously described method. Protein oxidation was analyzed by carbonyl-level measurement as previously described. Cell homogenates were incubated with the classical carbonyl reagent 2,4-dinitrophenylhydrazine (DNPH), and protein carbonylation was measured spectrophotometrically at 375 nm. The results were calculated in nmol carbonyl groups mg^−1 protein.
According to the literature, gold complexes act as anticancer agents by the disruption of redox homeostasis. As a result, the concentration of ROS species rises and consequently, main biomolecules, such as lipids, proteins, or even DNA, can be oxidized. However, tumor cells present an overproduction of ROS species due to their high metabolism. The most common anticancer strategy is promoting a higher oxidative damage in biomolecules to trigger the apoptosis process. […] In this study, we evaluated the oxidation levels of the carbonyl groups present in proteins by the established method of 2,4-dinitrophenylhydrazine (DNPH).
Figure 6 Carbonyl levels (nmol mg^−1 protein) in Caco-2/TC7 cells treated with vehicle DMSO (control) or gold(III) complexes (24 h, 20 μM). Values are expressed as mean values ± SEM (n ≥ 6 experiments). ** p < 0.01; *** p < 0.001 vs. control.

On to [Au(ppy)(dedtc)]PF6 [Complex C4], for which the “MIC Cn” value in test [1] was found to be 32 µg/mL. On BSA, the “bimolecular quenching constant kq” value is 2.01e+12 M⁻¹ s⁻¹; the “Stern–Volmer quenching constant KSV” value amounted to 20100 M⁻¹; the “number of binding sites n” value is reported as 1.18; the “number of binding sites n, rounded (in brackets)” value (“number … (in brackets)” for short) worked out at 1.
For `Cc1ccc(-c2ccccn2)[c]([Au+][S]C(=S)N(C)C)c1.F[P-](F)(F)(F)(F)F` [Complex C1, [Au(tpy)(dmdtc)] PF6], the “effect on cell cycle (cells in G0/G1, S, G2/M phases) vs control” value (from here on “effect on cell cycle … vs control”) in the test with Caco-2 cells is reported as “did not have a significant impact”. Besides, in test [1], the “MIC Cn” value worked out at 32 µg/mL. Moreover, the “oxidized protein (carbonyl) levels vs control” value (“oxidized protein … vs control” below) in the test with Caco-2/TC7 cells was “did not promote oxidative stress damage”. On BSA, the “bimolecular quenching constant kq” value worked out at 1.3e+12 M⁻¹ s⁻¹; the “Stern–Volmer quenching constant KSV” value worked out at 13000 M⁻¹; the “number of binding sites n” value is on record as 1.72; the “number … (in brackets)” value is listed as 2.
`Cc1ccc2[c](c1)[Au-]1([S]C(N(Cc3ccccc3)Cc3ccccc3)=[S+]1)[n+]1ccccc1-2.F[P-](F)(F)(F)(F)F` (centres unmarked) [Complex C5, [Au(tpy)(dbdtc)]PF6]: in the test on Caco-2 cells, the “effect on cell cycle … vs control” value is reported as “did not have a significant impact”. Besides, in test [1], the “MIC Cn” value was determined as 32 µg/mL. Besides, the “oxidized protein … vs control” value in the test with Caco-2/TC7 cells is on record as “did not promote oxidative stress damage”. Besides, at BSA, the “bimolecular quenching constant kq” value is 4.43e+12 M⁻¹ s⁻¹; the “Stern–Volmer quenching constant KSV” value was 44300 M⁻¹; the “number of binding sites n” value turned out to be 1.57; the “number … (in brackets)” value is reported as 1–2.
Turning to `CN(C)C(=S)[S][Au+][c]1ccccc1-c1ccccn1.F[P-](F)(F)(F)(F)F` [Complex C2, [Au(ppy)(dmdtc)]PF6], in test [1], the “MIC Cn” value came out at 32 µg/mL. Besides, at BSA, the “bimolecular quenching constant kq” value was 1.37e+12 M⁻¹ s⁻¹; the “Stern–Volmer quenching constant KSV” value is 13700 M⁻¹; the “number of binding sites n” value came to 1.42; the “number … (in brackets)” value turned out to be 1.
With `F[P-](F)(F)(F)(F)F.S=C([S][Au+][c]1ccccc1-c1ccccn1)N(Cc1ccccc1)Cc1ccccc1` [Complex C6, [Au(ppy)(dbdtc)]PF6], in the test with Caco-2 cells, the “effect on cell cycle … vs control” value is “did not have a significant impact”. Besides, in the test on Caco-2/TC7 cells, the “oxidized protein … vs control” value is on record as “did not promote oxidative stress damage”. Further, at BSA, the “bimolecular quenching constant kq” value is 6.44e+12 M⁻¹ s⁻¹; the “Stern–Volmer quenching constant KSV” value was found to be 64400 M⁻¹; the “number of binding sites n” value was 1.43; the “number … (in brackets)” value came out at 1.
For the compound `CCN(CC)C(=S)[S][Au+][c]1cc(C)ccc1-c1ccccn1.F[P-](F)(F)(F)(F)F` [Complex C3, [Au(tpy)(dedtc)]PF6], the “MIC Cn” value in test [1] was found to be 2 µg/mL. On BSA, the “bimolecular quenching constant kq” value came to 1.9e+12 M⁻¹ s⁻¹; the “Stern–Volmer quenching constant KSV” value is 19000 M⁻¹; the “number of binding sites n” value is 0.95; the “number … (in brackets)” value is 1.
